Among the data in patent US11492335B2, “Aryl or heteroaryl triazolone derivatives or salts thereof, or pharmaceutical compositions comprising the same” (YUHAN CORPORATION, priority 2018, dated 2022) are IC50 values, retold here.

In general, IC50 refers to the point on the concentration scale where inhibition reaches its midpoint.

What all share (assay type): biochemical
In experiment [1] the target is T1, recombinant human MAO-B (monoamine oxidase-B) (Homo sapiens, UniProt P27338).
T1 construct: purchased Sigma-Aldrich
T1 sequence (P27338 1-520): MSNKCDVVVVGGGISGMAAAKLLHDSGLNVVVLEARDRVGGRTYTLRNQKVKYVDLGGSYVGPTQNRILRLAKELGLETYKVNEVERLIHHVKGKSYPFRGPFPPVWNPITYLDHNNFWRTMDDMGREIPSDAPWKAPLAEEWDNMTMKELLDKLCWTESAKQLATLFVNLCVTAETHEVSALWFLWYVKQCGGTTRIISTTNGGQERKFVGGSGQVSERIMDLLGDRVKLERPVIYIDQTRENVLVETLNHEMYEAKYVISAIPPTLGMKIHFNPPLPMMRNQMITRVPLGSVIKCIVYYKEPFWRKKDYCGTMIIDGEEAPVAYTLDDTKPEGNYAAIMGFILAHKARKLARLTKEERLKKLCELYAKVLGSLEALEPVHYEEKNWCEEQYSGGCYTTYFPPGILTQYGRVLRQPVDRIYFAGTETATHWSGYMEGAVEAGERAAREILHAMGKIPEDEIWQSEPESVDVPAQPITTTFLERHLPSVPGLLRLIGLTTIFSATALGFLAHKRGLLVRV
Briefly: Activity on recombinant human MAO-B, Amplex Red method, 1 mM benzylamine substrate. Conditions: read-out: Inhibitory Activity (IC50, nM) MAO-B. The procedure, abridged:
(§1)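 8-point, 1:3 dose-response, four-parameter logistic IC50 from reduction in fluorescence rate versus DMSO control. HRP/Amplex Red detection of H2O2 (ex 544, em 590 nm) after 30 min, 37 °C compound–enzyme preincubation in pH 7.4 phosphate buffer. MAO-A substrate: 0.5 mM tyramine; MAO-B: 1 mM benzylamine.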

The next experiment has as its target T2, recombinant human VAP-1 (Homo sapiens, UniProt Q16853).
T2 construct: purchased R&D systems
T2 sequence (Q16853 1-763): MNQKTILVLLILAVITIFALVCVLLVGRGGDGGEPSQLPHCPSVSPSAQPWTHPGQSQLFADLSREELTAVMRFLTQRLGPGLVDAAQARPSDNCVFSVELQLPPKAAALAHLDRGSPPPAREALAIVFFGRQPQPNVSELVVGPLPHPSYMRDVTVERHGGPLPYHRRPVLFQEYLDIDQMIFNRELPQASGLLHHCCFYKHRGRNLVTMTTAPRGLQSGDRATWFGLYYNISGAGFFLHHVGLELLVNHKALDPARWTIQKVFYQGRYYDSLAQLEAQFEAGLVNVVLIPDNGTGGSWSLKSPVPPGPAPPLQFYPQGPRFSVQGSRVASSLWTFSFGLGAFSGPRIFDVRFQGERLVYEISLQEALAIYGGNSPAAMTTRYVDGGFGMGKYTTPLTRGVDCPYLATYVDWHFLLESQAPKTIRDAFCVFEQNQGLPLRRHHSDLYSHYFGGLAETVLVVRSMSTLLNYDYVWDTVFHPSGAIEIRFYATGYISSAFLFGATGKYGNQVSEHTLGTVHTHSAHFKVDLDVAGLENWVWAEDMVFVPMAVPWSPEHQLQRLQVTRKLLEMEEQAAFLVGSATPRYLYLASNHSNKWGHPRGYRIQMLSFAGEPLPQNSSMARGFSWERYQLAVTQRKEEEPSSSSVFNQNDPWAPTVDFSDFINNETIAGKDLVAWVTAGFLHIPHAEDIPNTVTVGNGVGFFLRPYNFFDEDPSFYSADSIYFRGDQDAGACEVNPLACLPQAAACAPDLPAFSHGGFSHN
Briefly: Activity on recombinant human VAP-1, Amplex Red HRP-coupled hydrogen peroxide assay, benzylamine substrate. The settings on record: recombinant human VAP-1, benzylamine substrate, read-out: Inhibitory Activity (IC50, nM) human VAP-1. The method, boiled down: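 Compounds were preincubated with purified enzyme in 50 mM sodium phosphate pH 7.4 at 37 °C for 30 min, then 200 uM Amplex Red, 1 mM benzylamine and 1 U/mL HRP were added. Resorufin fluorescence (ex 544/em 590 nm) was followed over 1-2 h; IC50 came from 4-parameter fits of signal-rate inhibition.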

Experiment [2] concerns the target T3, recombinant human DAO (diamine oxidase) (Homo sapiens, UniProt P19801).
T3 construct: purchased R&D systems
T3 sequence (P19801 20-751): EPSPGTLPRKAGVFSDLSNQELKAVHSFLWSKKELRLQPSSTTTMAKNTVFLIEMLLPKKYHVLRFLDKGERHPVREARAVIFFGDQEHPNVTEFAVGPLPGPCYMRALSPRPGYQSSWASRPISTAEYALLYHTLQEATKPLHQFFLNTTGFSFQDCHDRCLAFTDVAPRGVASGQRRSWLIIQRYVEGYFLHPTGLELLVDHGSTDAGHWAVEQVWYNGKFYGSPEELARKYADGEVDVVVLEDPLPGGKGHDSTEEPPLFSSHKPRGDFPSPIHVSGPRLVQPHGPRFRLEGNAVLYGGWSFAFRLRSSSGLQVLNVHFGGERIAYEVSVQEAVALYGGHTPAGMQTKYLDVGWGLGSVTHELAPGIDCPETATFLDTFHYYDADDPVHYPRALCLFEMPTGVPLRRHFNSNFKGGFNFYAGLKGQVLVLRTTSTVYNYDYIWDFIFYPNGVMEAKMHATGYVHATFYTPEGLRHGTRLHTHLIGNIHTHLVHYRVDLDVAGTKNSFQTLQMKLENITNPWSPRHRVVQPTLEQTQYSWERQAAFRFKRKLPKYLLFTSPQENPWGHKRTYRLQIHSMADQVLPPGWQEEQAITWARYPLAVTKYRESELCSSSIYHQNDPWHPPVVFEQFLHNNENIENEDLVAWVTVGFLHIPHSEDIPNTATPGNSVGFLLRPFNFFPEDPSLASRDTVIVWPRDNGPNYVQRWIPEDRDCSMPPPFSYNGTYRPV
Kind of experiment: Activity on recombinant human DAO, Amplex Red method, 1 mM putrescine substrate. The settings on record: recombinant human DAO, read-out: Inhibitory Activity (IC50, nM) DAO. The method, boiled down: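 Inhibition of recombinant human DAO (diamine oxidase, R&D systems) was assessed with the Amplex Red Hydrogen Peroxide Assay Kit. Hydrogen peroxide produced from 1 mM putrescine was detected through an HRP-coupled reaction that converts Amplex Red into fluorescent resorufin, read at 544 nm excitation and 590 nm emission. IC50 values came from four-parameter logistic fits in GraphPad Prism.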

Experiment [3] has as its target T4, recombinant human MAO-A (monoamine oxidase-A) (Homo sapiens, UniProt P21397).
T4 construct: purchased Sigma-Aldrich
T4 sequence (P21397 1-527): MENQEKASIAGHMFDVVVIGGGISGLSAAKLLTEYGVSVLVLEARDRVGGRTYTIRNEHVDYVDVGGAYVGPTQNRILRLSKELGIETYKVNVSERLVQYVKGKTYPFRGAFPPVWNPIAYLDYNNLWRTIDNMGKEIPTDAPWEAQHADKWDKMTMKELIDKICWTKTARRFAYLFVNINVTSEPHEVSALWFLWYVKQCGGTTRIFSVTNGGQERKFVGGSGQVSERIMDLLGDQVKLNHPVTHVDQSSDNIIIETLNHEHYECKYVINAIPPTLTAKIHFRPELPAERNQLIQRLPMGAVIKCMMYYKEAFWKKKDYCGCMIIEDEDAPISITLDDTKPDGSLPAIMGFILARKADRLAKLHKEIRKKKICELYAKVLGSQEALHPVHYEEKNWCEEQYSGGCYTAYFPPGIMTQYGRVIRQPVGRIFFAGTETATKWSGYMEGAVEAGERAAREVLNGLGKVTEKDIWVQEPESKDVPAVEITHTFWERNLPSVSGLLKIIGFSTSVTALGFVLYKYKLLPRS
Briefly: Activity on recombinant human MAO-A, Amplex Red method, 0.5 mM tyramine substrate. Conditions: read-out: Inhibitory Activity (IC50, nM) MAO-A. The procedure, abridged: as §1

[4] abbreviates: 1 mM putrescine, * = between 10 and 100 nM, ** = between 300 and 1000 nM.

Molecules are shown by their SMILES. Where a name gives a salt, the structure may show the parent alone. Read-outs that look alike come from different tables or passages of the source.

With `NC/C(=C/F)Cn1ncn(-c2ccc(Br)cc2F)c1=O` [Example 11, 2-[(2Z)-2-(aminomethyl)-3-fluoroprop-2-en-1-yl]-4-(4-bromo-2-fluorophenyl)-2,4-dihydro-3H-1,2,4-triazol-3-one hydrochloride], the IC50 is 12 nM in experiment [1] (1 mM benzylamine), 1.5 nM at recombinant human VAP-1 (30 min preincubation at 37° C.), 209 nM in experiment [2] (setting [4]) and 200 nM in experiment [3] (0.5 mM tyramine).
The matching figures for `NC/C(=C/F)Cn1ncn(-c2ccc(Br)c(F)c2)c1=O` [Example 13, 2-[(2Z)-2-(aminomethyl)-3-fluoroprop-2-en-1-yl]-4-(4-bromo-3-fluorophenyl)-2,4-dihydro-3H-1,2,4-triazol-3-one]: 3.3 nM, 2.3 nM, 67 nM and 155 nM.
With `Cc1ccc(-c2cccc(-c3noc(C4CC4)n3)c2)nc1-n1cnn(C/C(=C/F)CN)c1=O` [Example 210, 2-[(2E)-2-(aminomethyl)-3-fluoroprop-2-en-1-yl]-4-{6-[3-(5-cyclopropyl-1,2,4-oxadiazol-3-yl)phenyl]-3-methylpyridin-2-yl}-2,4-dihydro-3H-1,2,4-triazol-3-one hydrochloride], the IC50 in experiment [1] (1 mM benzylamine substrate) was more than 10000 nM; on recombinant human VAP-1 it was 52 nM; in experiment [2] (1 mM putrescine substrate), 4400 nM; in experiment [3] (0.5 mM tyramine substrate) it was more than 100000 nM.
Take `NC/C(=C\F)Cn1ncn(-c2cccc(-c3ccc4c(c3)NC(=O)CO4)c2)c1=O` [Example 103, 6-(3-{1-[(2E)-2-(aminomethyl)-3-fluoroprop-2-en-1-yl]-5-oxo-1,5-dihydro-4H-1,2,4-triazol-4-yl}phenyl)-2H-1,4-benzoxazin-3(4H)-one hydrochloride]: the IC50 in experiment [1] (1 mM benzylamine) turned out to be 1200 nM; at recombinant human VAP-1 (30 min preincubation at 37° C.), 0.6 nM; in experiment [2] (setting [4]), 2.5 nM; in experiment [3] (0.5 mM tyramine), 26500 nM.
The matching figures for `CC(=O)Nc1cc(-c2cccc(-n3cnn(C/C(=C/F)CN)c3=O)c2)ccn1` [Example 81, N-[4-(3-{1-[(2E)-2-(aminomethyl)-3-fluoroprop-2-en-1-yl]-5-oxo-1,5-dihydro-4H-1,2,4-triazol-4-yl}phenyl)pyridin-2-yl]acetamide hydrochloride]: 7520 nM, 0.54 nM, less than 100 nM and more than 100000 nM.
In the case of `NC/C(=C/F)Cn1ncn(-c2c(F)cc(Br)cc2F)c1=O` [Example 21, 2-[(2Z)-2-(aminomethyl)-3-fluoroprop-2-en-1-yl]-4-(4-bromo-2,6-difluorophenyl)-2,4-dihydro-3H-1,2,4-triazol-3-one hydrochloride], the half-inhibitory concentration (IC50) in experiment [1] (1 mM benzylamine) worked out at 25 nM; at recombinant human VAP-1 (30 min preincubation at 37° C.) it was 7.3 nM; in experiment [2] (setting [4]) it was 333 nM; in experiment [3] (0.5 mM tyramine), 400 nM.
The matching figures for `NC/C(=C\F)Cn1ncn(-c2cccc(-c3ccc(C(F)(F)F)nc3)c2)c1=O` [Example 84, 2-[(2E)-2-(aminomethyl)-3-fluoroprop-2-en-1-yl]-4-{3-[6-(trifluoromethyl)pyridin-3-yl]phenyl}-2,4-dihydro-3H-1,2,4-triazol-3-one hydrochloride]: 3000 nM, 0.78 nM, less than 10 nM and more than 100000 nM.
On the same counts, the results for `Cc1cc(-n2cnn(C/C(=C/F)CN)c2=O)cnc1-c1ccc2c(c1)OCO2` [Example 117, 2-[(2E)-2-(aminomethyl)-3-fluoroprop-2-en-1-yl]-4-[6-(1,3-benzodioxol-5-yl)-5-methylpyridin-3-yl]-2,4-dihydro-3H-1,2,4-triazol-3-one] are 32 nM, 0.21 nM, 2.5 nM and more than 100000 nM.
Take `NC/C(=C\F)Cn1ncn(-c2cccc(-c3ccc4c(c3)OCCO4)n2)c1=O` [Example 194, 2-[(2E)-2-(aminomethyl)-3-fluoroprop-2-en-1-yl]-4-[6-(2,3-dihydro-1,4-benzodioxin-6-yl)pyridin-2-yl]-2,4-dihydro-3H-1,2,4-triazol-3-one]: the IC50 in experiment [1] (1 mM benzylamine substrate) was 2710 nM; at recombinant human VAP-1 it was 1.2 nM; in experiment [2] (1 mM putrescine substrate) it was 2.9 nM; in experiment [3] (0.5 mM tyramine substrate), more than 100000 nM.
Take `NC/C(=C/F)Cn1ncn(-c2ccc(F)c(F)c2)c1=O` [Example 9, 2-[(2Z)-2-(aminomethyl)-3-fluoroprop-2-en-1-yl]-4-(3,4-difluorophenyl)-2,4-dihydro-3H-1,2,4-triazol-3-one]: the IC50 came out at 85 nM in experiment [1] (1 mM benzylamine), 5.4 nM at recombinant human VAP-1 (30 min preincubation at 37° C.), 290 nM in experiment [2] (setting [4]) and 2100 nM in experiment [3] (0.5 mM tyramine).
